In patent US20190248834A1, “ENDOMORPHIN-2, TETRAPEPTIDE DERIVATIVES THEREOF, AND USES THEREOF” (priority 2016, published 2019):
Non-standard residues stand in square brackets, D forms with d. pGlu = O=C1CC[C@@H](C(=O)O)N1

Experiments:
Assay type in all cases: in vivo, human
[1] = system: ordinary type of headache; test: Example 11: analgesic effect on headache, topical; conditions: 1% (w/v) in EP73, topical
From the text: A subject, developed an ordinary type of headache in the early afternoon. Such headaches usually would persist for several hours, being relieved incompletely by treatment with oral drugs, such as ibuprofen and/or acetaminophen. In this instance, they topically applied an anhydrous composition containing 1% (w/v) N-Ac-Tyr-Pro-Phe-Phe-NH2(SEQ ID NO: 23) in EP73 to the frontal and temporal areas.

[2] = system: chronic subpatellar and peripheral patellar pain; test: Example 8: analgesic effect on knee pain, topical
From the text: A subject had chronic subpatellar and peripheral patellar pain in their knees.
The subject topically applied an anhydrous composition containing 0.7% (w/v) N-Ac-Tyr-Pro-Phe-Phe-NH2 (SEQ ID NO: 23) in EP73, formulated as described in Example 2, at bedtime. The next morning, they observed about 50% relief of pain. The subject topically re-applied the same composition under a plastic film wrap for one hour, after which they observed about 95% relief of pain.

intense headaches = test: Example 33: analgesic effect on recurring headaches, topical; conditions: 0.8% (w/v) in EP73, topical
Procedure: A subject with intense headaches after several hours of using a computer in their work as a real estate agent, topically applied to the forehead and temporal areas a composition containing 0.8% (w/v) of N-Ac-Tyr-Pro-Phe-Phe-NH2 (SEQ ID NO: 23)0 in EP73, formulated as described in Example 2. […] Such headaches, occurring 1-2 times weekly, were treated in the same manner over a 2 month interval, with headache pain being relieved each time.

[3] = system: knee and lower back pain from osteoarthritis; test: Example 14: analgesic effect on osteoarthritic knees and lower back, topical; conditions: 1% (w/v) in WEP442, about 60 ml to whole body
Procedure: A subject had severe knee pain for many years and lower back pain for approximately one year from osteoarthritis, and in both cases, the pain was partially relieved by oral opiates. One day before bedtime, the subject took a low dose of an opiate, but the next morning, they still developed substantial pain in the knees and moderate pain in the lower back.
The subject topically applied approximately 60 ml of a solution composition containing 1% (w/v) N-Ac-Tyr-Pro-Phe-Phe-NH2 (SEQ ID NO: 23) in WEP442 to the whole body, excluding only the scalp, face and soles. […] This lowered degree of pain was maintained for about 7 hours.

[4] = system: bursitis of the right elbow; test: Example 36: analgesic effect on pain of elbow bursitis, topical
From the text: A subject had painful bursitis of the right elbow that impaired their performance as a golfer. […] They played golf later the same day and experienced no bursitis pain during the game.

sprain of the left ankle = test: Example 21: analgesic effect on ankle sprain, topical
From the text: A subject, suffered a sprain of the left ankle after stepping on a stone while hiking, twisting the ankle inwardly. Ten days later, after wearing an elastic ankle support daily, pain from the injury persisted. The subject topically applied an anhydrous composition containing 0.7% (w/v) N-Ac-Tyr-Pro-Phe-Phe-NH2 (SEQ ID NO: 23) in EP73, formulated as described in Example 2. […] Upon arising the next morning, the subject experienced mild ankle pain, whereupon the composition was again applied. […] The subject was discomfort free thereafter.

[5] = system: sore subcutaneous lipomas; test: Example 35: analgesic effect on soreness of subcutaneous lipomas, topical; conditions: 1% (w/v) in WEP442, topical
From the text: A subject with many subcutaneous lipomas on their arms, torso and thighs that often become painfully sore after being bumped against objects during the course of daily activities, topically applied to tenderly sore lipomas a composition containing 1% (w/v) N-Ac-Tyr-Pro-Phe-Phe-NH2 (SEQ ID NO: 23) in WEP442. Such applications were repeated multiple times over a period of two months.

psoriatic arthritis = test: Example 73: analgesic effect on psoriatic arthritis of hands, fingers and ankles, topical; conditions: 0.5% (w/v) in WEP442, topical
From the text: A subject had psoriatic arthritis of the hands and finger joints and ankle joints for 4 years.

right shoulder pain = test: Example 77: analgesic effect on pain from shoulder strain, topical; conditions: 0.5% (w/v) in WEP442, topical
Procedure: A subject, presented with right shoulder pain for a duration of 5 days, which developed after carrying a very heavy grocery bag for several city blocks. The pain was increased by their attempts to lift their arm to an elevated position, and further increased from rotational arm movements. […] Such relief lasted for about 6 hours, at which time re-application provided the same relief.

headache = test: Example 52: analgesic effect on headache; conditions: 1% (w/v) in WEP442, topical
From the text: At 5:30 p.m., the headache pain was becoming more intense, at which time they topically applied a composition containing 1% (w/v) of N-Pg-Tyr-Pro-Phe-Phe-NH2 (SEQ ID NO: 44) in WEP442 to the entire forehead and temporal areas. […] There was no recurrence of symptoms over the next 3 days of follow-up time.

[6] = system: knee pain, bulging meniscus; test: Example 65: analgesic effect on pain from bulging sub-patellar meniscus, topical; conditions: 0.6% (w/v) in WEP442, topical
From the text: A landscape worker slipped on the grass and twisted their right knee, which became too painful for them to walk on without physical support. […] Surgical corrective procedures were scheduled for 2 weeks later. In the meantime, topical applications of the above solution as needed allowed them to move about with no discomfort.

[7] = 0.7% (w/v) in EP73, first topical application
[8] = 0.7% (w/v) in EP73, second application

For `CC(=O)N[C@@H](Cc1ccc(O)cc1)C(=O)N1CCC[C@H]1C(=O)N[C@@H](Cc1ccccc1)C(=O)N[C@@H](Cc1ccccc1)C(N)=O` [N-Ac-Tyr-Pro-Phe-Phe-NH2], the “duration of headache alleviation” value [1] was 18 h, the pain relief [1] was “headache pain disappeared completely” and the “time to pain relief” value [1] was “Within minutes”. For the same compound, the relief of pain ([2]; 0.7% (w/v) in EP73, re-applied under plastic film wrap for one hour) was “about 95%”, the relief of pain ([2]; 0.7% (w/v) in EP73, topical at bedtime, next morning) was “about 50%” and the pain relief (intense headaches) was “Complete headache relief”. The “time to pain relief” value (intense headaches) was ≤ 1 min, the “duration of lowered degree of pain” value [3] was “about 7 hours” and the “pain in both knees and the lower back” value ([3]; after 4 hours) was “diminished to very low level”. The “pain in both knees and the lower back” value ([3]; over the next 2 hours) was “diminished substantially”, the pain relief ([4]; 0.8% (w/v) in WEP442, topical) was “complete loss of pain” and the “time to pain relief” value ([4]; 0.8% (w/v) in WEP442, topical) was ≤ 2 min. For the same compound, the “duration of pain relief” value ([4]; 0.8% (w/v) in WEP442, topical in the afternoon) was “Pain did not recur until the next morning”, the pain relief (sprain of the left ankle; 0.7% (w/v) in EP73, application next morning, within about 5 minutes) was “no discomfort was discernible” and the pain relief (sprain of the left ankle; [7]) was “relieved almost completely”. For the same compound, the “time to pain relief” value (sprain of the left ankle; [7]) was 3 to 4 min, the pain relief (sprain of the left ankle; [8]) was “complete relief of all discomfort” and the “time to pain relief” value (sprain of the left ankle; [8]) was ≤ 5 min. The time to relief [5] was ≤ 1 min, the relief of soreness ([5]; repeated over two months) was “relieved all feelings of soreness” and the “duration of pain relief” value (psoriatic arthritis) was “approximately 6 hours”. The pain relief (psoriatic arthritis) was “almost complete relief of pain”.
“N-Pg-Tyr-Pro-Phe-Phe-NH2 ([pGlu]YPFF-NH2; SMILES NC(=O)[C@H](Cc1ccccc1)NC(=O)[C@H](Cc1ccccc1)NC(=O)[C@@H]1CCCN1C(=O)[C@H](Cc1ccc(O)cc1)NC(=O)[C@@H]1CCC(=O)N1)” was tested, and the “duration of pain relief” value (right shoulder pain) was “about 6 hours”, the pain relief (right shoulder pain) was “rapid, complete relief of pain” and the pain relief (headache) was “all pain, and heavy feelings were completely gone”. The “time to pain relief” value (headache) was ≤ 30 s, the “time without recurrence of symptoms (follow-up)” value (headache) was ≥ 3 days and the “duration of pain relief” value [6] was “lasted throughout the working day”. For the same compound, the pain relief [6] was “complete relief of pain” and the “time to pain relief” value [6] was 3 to 4 min.
